Assay results: patent publication US9040527B2, “Pyrimidinediamine kinase inhibitors” (Rigel Pharmaceuticals, Inc., priority 2008, dated 2015)
pIC50: −log10 of the molar value.

Key:
PLK1 [1] = target: T1, PLK1 (Homo sapiens, UniProt P53350); assay: In vitro PLK1 ELISA assay (biochemical); set-up: purchased Cell Signalling 7728; settings: for IC50: ELISA, CHK2-derived peptide substrate, read-out: PLK1 IC50 (μM) biochemical assay
In short: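 Commercial PLK1 phosphorylates neutravidin-captured biotinylated CHK2 peptide for 45 min at room temperature in HEPES pH 7.2 with Mg2+/Mn2+/DTT, compounds at 10 μM to 0.005 μM. Phospho-CHK2(T68) antibody plus HRP secondary gives chemiluminescent read-out used for IC50.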

PLK1 [2] = target: T1, PLK1; assay: Cellular PLK1 assay in K562 cells overexpressing CDC25C; format: cell-based; set-up: endogenous in cells; host or cells: K562 (human chronic myelogenous leukemia) overexpressing CDC25C, nocodazole-arrested; settings: nocodazole arrested, cdc25c p-Ser198 readout
In short: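 K562 cells overexpressing CDC25C were arrested with 333 nM nocodazole for 18 h at 37 °C, then exposed to compound at 8 points from 10 μM to 0.005 μM in duplicate for 120 min. After fixation and permeabilization, cells were stained for cdc25c pSer198 with a PE secondary and read by flow cytometry, 10,000 cells per well.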

[3] = read-out: IC50 in biochemical in vitro PLK1 ELISA assay (less than 10 μM)
[4] = read-out: IC50 in biochemical ELISA assay (less than 0.01 μM)

T1 sequence (P53350 whole entry): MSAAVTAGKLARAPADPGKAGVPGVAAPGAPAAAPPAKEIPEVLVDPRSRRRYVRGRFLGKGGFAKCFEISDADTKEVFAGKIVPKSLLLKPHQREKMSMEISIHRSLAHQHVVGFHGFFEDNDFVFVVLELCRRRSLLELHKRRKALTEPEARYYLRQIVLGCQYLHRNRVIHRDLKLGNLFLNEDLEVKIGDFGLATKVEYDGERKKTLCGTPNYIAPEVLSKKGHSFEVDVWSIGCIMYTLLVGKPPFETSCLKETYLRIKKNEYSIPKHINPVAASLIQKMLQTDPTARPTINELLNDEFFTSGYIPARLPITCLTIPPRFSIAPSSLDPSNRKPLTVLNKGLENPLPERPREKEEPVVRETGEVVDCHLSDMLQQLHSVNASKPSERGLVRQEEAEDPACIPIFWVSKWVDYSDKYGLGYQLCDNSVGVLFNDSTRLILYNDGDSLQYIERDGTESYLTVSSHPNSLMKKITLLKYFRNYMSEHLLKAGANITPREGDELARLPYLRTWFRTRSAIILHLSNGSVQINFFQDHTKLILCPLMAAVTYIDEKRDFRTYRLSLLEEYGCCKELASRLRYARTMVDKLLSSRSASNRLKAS

SMILES | IC50 (PLK1 [1]) [µM] | pIC50 (PLK1 [1]; [3]) | IC50 (PLK1 [2]) [µM] | pIC50 (PLK1 [1]; [4])
CCCN1C(=O)COc2ccc(Nc3nc(Nc4ccc(N5CC6CC5CN6C(C)=O)c(C)c4)ncc3F)nc21 (centres unmarked) [compound 35, 6-(2-(4-(5-acetyl-2,5-diazabicyclo[2.2.1]heptan-2-yl)-3-methylphenylamino)-5-fluoropyrimidin-4-ylamino)-4-propyl-2H-pyrido[3,2-b][1,4]oxazin-3(4H)-one] | < 0.5 | > 5.00 | 0.5 to 5 | –
C#CCN1C(=O)COc2ccc(Nc3nc(Nc4cccc(N5CCN(C)CC5)c4)ncc3C)nc21 [compound 127, 6-(5-methyl-2-(3-(4-methylpiperazin-1-yl)phenylamino)pyrimidin-4-ylamino)-4-(prop-2-ynyl)-2H-pyrido[3,2-b][1,4]oxazin-3(4H)-one] | < 0.5 | > 5.00 | < 0.5 | > 8.00
CN1CCN(c2cc(Nc3ncc(F)c(Nc4ccc5c(n4)NCCO5)n3)cc(C(F)(F)F)c2)CC1 [compound 24, N4-(3,4-dihydro-2H-pyrido[3,2-b][1,4]oxazin-6-yl)-5-fluoro-N2-(3-(4-methylpiperazin-1-yl)-5-(trifluoro-methyl)phenyl)pyrimidine-2,4-diamine] | < 0.5 | > 5.00 | ≥ 10 | –
CCOc1ccc(N2CCN(C)CC2)cc1Nc1ncc(F)c(Nc2ccc3c(n2)NCCO3)n1 [compound 45, N4-(3,4-dihydro-2H-pyrido[3,2-b][1,4]oxazin-6-yl)-N2-(2-ethoxy-5-(4-methylpiperazin-1-yl)phenyl)-5-fluoro-pyrimidine-2,4-diamine] | < 0.5 | > 5.00 | < 0.5 | –
CC(C)Oc1ccc(N2CCN(C)CC2)cc1Nc1ncc(F)c(Nc2ccc3c(n2)NC(=O)CO3)n1 [compound 30, 6-(5-fluoro-2-(2-isopropoxy-5-(4-methylpiperazin-1-yl)phenylamino)pyrimidin-4-ylamino)-2H-pyrido[3,2-b][1,4]oxazin-3(4H)-one] | < 0.5 | > 5.00 | < 0.5 | –
Cc1cc(Nc2ncc(C)c(Nc3ccc4c(n3)N(CC3CC3)C(=O)CO4)n2)ccc1N1CCN(C)CC1 [compound 114, 4-(cyclopropylmethyl)-6-(5-methyl-2-(3-methyl-4-(4-methyl-piperazin-1-yl)phenylamino)pyrimidin-4-ylamino)-2H-pyrido[3,2-b][1,4]oxazin-3(4H)-one] | 0.5 to 5 | > 5.00 | ≥ 10 | –
CC(C)c1cc(Nc2ncc(F)c(Nc3ccc4c(n3)NC(=O)CO4)n2)cc(N2CCN(C)CC2)c1 [compound 44, 6-(5-fluoro-2-(3-isopropyl-5-(4-methylpiperazin-1-yl)phenylamino)pyrimidin-4-ylamino)-2H-pyrido[3,2-b][1,4]oxazin-3(4H)-one] | < 0.5 | > 5.00 | ≥ 10 | –
O=C1COc2ccc(Nc3nc(Nc4cccc(N5CCNCC5)c4)ncc3F)cc2N1 [compound 18, 6-(5-fluoro-2-(3-(piperazin-1-yl)phenylamino)pyrimidin-4-ylamino)-2H-benzo[b][1,4]oxazin-3(4H)-one] | < 0.5 | > 5.00 | 0.5 to 5 | –
COc1cnc(Nc2cccc(N3CCN(C)CC3)c2)nc1Nc1ccc2c(n1)NCCO2 [compound 52, N4-(3,4-dihydro-2H-pyrido[3,2-b][1,4]oxazin-6-yl)-5-methoxy-N2-(3-(4-methylpiperazin-1-yl)phenyl)pyrimidine-2,4-diamine] | < 0.5 | > 5.00 | 0.5 to 5 | –
CCCN1CCOc2ccc(Nc3nc(Nc4ccc(N5CC6CC5CN6C(C)=O)c(C)c4)ncc3C)nc21 (centres unmarked) [compound 39, 1-(5-(2-methyl-4-(5-methyl-4-(4-propyl-3,4-dihydro-2H-pyrido[3,2-b][1,4]oxazin-6-ylamino)pyrimidin-2-ylamino)phenyl)-2,5-diazabicyclo[2.2.1]heptan-2-yl)ethanone] | 0.5 to 5 | > 5.00 | 0.5 to 5 | –
CN1CCN(c2cc(Nc3ncc(F)c(Nc4ccc5c(n4)NCCO5)n3)cc(C3CC3)c2)CC1 [compound 48, N2-(3-cyclopropyl-5-(4-methylpiperazin-1-yl)phenyl)-N4-(3,4-dihydro-2H-pyrido[3,2-b][1,4]oxazin-6-yl)-5-fluoropyrimidine-2,4-diamine] | < 0.5 | > 5.00 | < 0.5 | > 8.00
COc1cnc(Nc2cccc(N3CCN(C)CC3)c2)nc1Nc1ccc2c(n1)NC(=O)CO2 [compound 56, 6-(5-methoxy-2-(3-(4-methylpiperazin-1-yl)phenylamino)pyrimidin-4-ylamino)-2H-pyrido[3,2-b][1,4]oxazin-3(4H)-one] | < 0.5 | > 5.00 | ≥ 10 | –
CC(C)Oc1cc(Nc2ncc(F)c(Nc3ccc4c(n3)NC(=O)CO4)n2)cc(N2CCN(C)CC2)c1 [compound 25, 6-(5-fluoro-2-(3-isopropoxy-5-(4-methylpiperazin-1-yl)phenylamino)pyrimidin-4-ylamino)-2H-pyrido[3,2-b][1,4]oxazin-3(4H)-one] | < 0.5 | > 5.00 | < 0.5 | > 8.00
CN1CCN(c2cccc(Nc3nccc(Nc4ccc5c(n4)NCCO5)n3)c2)CC1 [compound 21, N4-(3,4-dihydro-2H-pyrido[3,2-b][1,4]oxazin-6-yl)-N2-(3-(4-methylpiperazin-1-yl)phenyl)pyrimidine-2,4-diamine] | < 0.5 | > 5.00 | ≥ 10 | –
CCCN1CCOc2ccc(Nc3nc(Nc4ccc(N5CC6CC5CN6S(C)(=O)=O)c(C)c4)ncc3F)nc21 (centres unmarked) [compound 28, 5-fluoro-N2-(3-methyl-4-(5-(methylsulfonyl)-2,5-diaza-bicyclo[2.2.1]heptan-2-yl)phenyl)-N4-(4-propyl-3,4-dihydro-2H-pyrido[3,2-b][1,4]oxazin-6-yl)pyrimidine-2,4-diamine] | 0.5 to 5 | > 5.00 | 0.5 to 5 | –
CN1CCN(c2cccc(Nc3ncc(F)c(Nc4ccc5c(n4)N(Cc4ccccc4)C(=O)CO5)n3)c2)CC1 [compound 120, 4-benzyl-6-(5-fluoro-2-(3-(4-methylpiperazin-1-yl)phenylamino)pyrimidin-4-ylamino)-2H-pyrido[3,2-b][1,4]oxazin-3(4H)-one] | 0.5 to 5 | > 5.00 | 0.5 to 5 | –

Continued, values first:

IC50 (PLK1 [1]) [µM] | pIC50 (PLK1 [1]; [3]) | IC50 (PLK1 [2]) [µM] | pIC50 (PLK1 [1]; [4]) | SMILES
0.5 to 5 | > 5.00 | 0.5 to 5 | – | CCN1CCN(c2ccc(Nc3ncc(Cl)c(Nc4ccc5c(c4)N(CC)C(=O)CO5)n3)cc2)CC1 [compound 183, 6-(5-chloro-2-(4-(4-ethylpiperazin-1-yl)phenylamino)pyrimidin-4-ylamino)-4-ethyl-2H-benzo[b][1,4]oxazin-3(4H)-one]
< 0.5 | > 5.00 | 0.5 to 5 | > 8.00 | Cc1cnc(Nc2cccc(N3CCN(C)CC3)c2)nc1Nc1ccc2c(n1)N(CC1CCC1)C(=O)CO2 [compound 130, 4-(cyclobutylmethyl)-6-(5-methyl-2-(3-(4-methylpiperazin-1-yl)phenylamino)pyrimidin-4-ylamino)-2H-pyrido[3,2-b][1,4]oxazin-3(4H)-one]
0.5 to 5 | > 5.00 | 0.5 to 5 | – | CCN1C(=O)COc2ccc(Nc3nc(Nc4ccc(N5CCN(C)CC5)cc4)ncc3Cl)cc21 [compound 173, 6-(5-chloro-2-(4-(4-methylpiperazin-1-yl)phenylamino)pyrimidin-4-ylamino)-4-ethyl-2H-benzo[b][1,4]oxazin-3(4H)-one]
0.5 to 5 | > 5.00 | 0.5 to 5 | – | Cc1cnc(Nc2ccc(N3CCN(C)CC3)cc2)nc1Nc1ccc2c(c1)N(CCCF)C(=O)CO2 [compound 188, 4-(3-fluoropropyl)-6-(5-methyl-2-(4-(4-methylpiperazin-1-yl)phenylamino)pyrimidin-4-ylamino)-2H-benzo[b][1,4]oxazin-3(4H)-one]
0.5 to 5 | > 5.00 | 0.5 to 5 | – | CCN1C(=O)COc2ccc(Nc3nc(Nc4ccc(N5CCN(C)CC5)cc4)ncc3C)cc21 [compound 189, 4-ethyl-6-(5-methyl-2-(4-(4-methylpiperazin-1-yl)phenylamino)pyrimidin-4-ylamino)-2H-benzo[b][1,4]oxazin-3(4H)-one]
< 0.5 | > 5.00 | < 0.5 | – | CN1CCN(c2cccc(Nc3ncc(F)c(Nc4ccc5c(n4)NCCO5)n3)c2)CC1 [compound 167, N4-(3,4-dihydro-2H-pyrido[3,2-b][1,4]oxazin-6-yl)-5-fluoro-N2-(3-(4-methylpiperazin-1-yl)phenyl)pyrimidine-2,4-diamine]
< 0.5 | > 5.00 | 0.5 to 5 | > 8.00 | C#CCN1C(=O)COc2ccc(Nc3nc(Nc4cccc(N5CCN(C)CC5)c4)ncc3F)nc21 [compound 128, 6-(5-fluoro-2-(3-(4-methylpiperazin-1-yl)phenylamino)pyrimidin-4-ylamino)-4-(prop-2-ynyl)-2H-pyrido[3,2-b][1,4]oxazin-3(4H)-one]
0.5 to 5 | > 5.00 | ≥ 10 | – | CN1CCN(c2cccc(Nc3ncc(F)c(Nc4ccc5c(n4)N(C4CCCC4)C(=O)CO5)n3)c2)CC1 [compound 131, 4-cyclopentyl-6-(5-fluoro-2-(3-(4-methylpiperazin-1-yl)phenylamino)pyrimidin-4-ylamino)-2H-pyrido[3,2-b][1,4]oxazin-3(4H)-one]
